Data published in patent publication US20250115569A1, “SULFONAMIDE COMPOUNDS FOR THE TREATMENT OF NEUROLOGICAL CONDITIONS” (LARIO THERAPEUTICS LIMITED, priority 2021, published 2025).

What follows are compounds tested against Cav2.3 (Homo sapiens, UniProt Q15878) (assay: Human Cav2.3 channel calcium-influx assay). Settings: Fluo8 fluorescence, HEK-293 T-Rex/Kir2.1/Cav2.3e cells, without pluronic acid, read-out: Cav2.3 (pIC50) (converted).
Type: cell-based
Procedure, shortened: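 HEK-293 T-Rex/Kir2.1 cells with doxycycline (0.2 μg/mL)-inducible Cav2.3e plus Cavβ4-α2δ1, loaded with Fluo8 NW in 0 mM K+ Tyrode's. Compounds (8 points, top 30 μM, half-log, 0.3% final DMSO, n=4) preincubated 3 min at RT, then depolarized with 20 mM KCl/2 mM CaCl2 (final); fluorescence read 130 s.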

Chain of Cav2.3 (Q15878 whole entry, looked up): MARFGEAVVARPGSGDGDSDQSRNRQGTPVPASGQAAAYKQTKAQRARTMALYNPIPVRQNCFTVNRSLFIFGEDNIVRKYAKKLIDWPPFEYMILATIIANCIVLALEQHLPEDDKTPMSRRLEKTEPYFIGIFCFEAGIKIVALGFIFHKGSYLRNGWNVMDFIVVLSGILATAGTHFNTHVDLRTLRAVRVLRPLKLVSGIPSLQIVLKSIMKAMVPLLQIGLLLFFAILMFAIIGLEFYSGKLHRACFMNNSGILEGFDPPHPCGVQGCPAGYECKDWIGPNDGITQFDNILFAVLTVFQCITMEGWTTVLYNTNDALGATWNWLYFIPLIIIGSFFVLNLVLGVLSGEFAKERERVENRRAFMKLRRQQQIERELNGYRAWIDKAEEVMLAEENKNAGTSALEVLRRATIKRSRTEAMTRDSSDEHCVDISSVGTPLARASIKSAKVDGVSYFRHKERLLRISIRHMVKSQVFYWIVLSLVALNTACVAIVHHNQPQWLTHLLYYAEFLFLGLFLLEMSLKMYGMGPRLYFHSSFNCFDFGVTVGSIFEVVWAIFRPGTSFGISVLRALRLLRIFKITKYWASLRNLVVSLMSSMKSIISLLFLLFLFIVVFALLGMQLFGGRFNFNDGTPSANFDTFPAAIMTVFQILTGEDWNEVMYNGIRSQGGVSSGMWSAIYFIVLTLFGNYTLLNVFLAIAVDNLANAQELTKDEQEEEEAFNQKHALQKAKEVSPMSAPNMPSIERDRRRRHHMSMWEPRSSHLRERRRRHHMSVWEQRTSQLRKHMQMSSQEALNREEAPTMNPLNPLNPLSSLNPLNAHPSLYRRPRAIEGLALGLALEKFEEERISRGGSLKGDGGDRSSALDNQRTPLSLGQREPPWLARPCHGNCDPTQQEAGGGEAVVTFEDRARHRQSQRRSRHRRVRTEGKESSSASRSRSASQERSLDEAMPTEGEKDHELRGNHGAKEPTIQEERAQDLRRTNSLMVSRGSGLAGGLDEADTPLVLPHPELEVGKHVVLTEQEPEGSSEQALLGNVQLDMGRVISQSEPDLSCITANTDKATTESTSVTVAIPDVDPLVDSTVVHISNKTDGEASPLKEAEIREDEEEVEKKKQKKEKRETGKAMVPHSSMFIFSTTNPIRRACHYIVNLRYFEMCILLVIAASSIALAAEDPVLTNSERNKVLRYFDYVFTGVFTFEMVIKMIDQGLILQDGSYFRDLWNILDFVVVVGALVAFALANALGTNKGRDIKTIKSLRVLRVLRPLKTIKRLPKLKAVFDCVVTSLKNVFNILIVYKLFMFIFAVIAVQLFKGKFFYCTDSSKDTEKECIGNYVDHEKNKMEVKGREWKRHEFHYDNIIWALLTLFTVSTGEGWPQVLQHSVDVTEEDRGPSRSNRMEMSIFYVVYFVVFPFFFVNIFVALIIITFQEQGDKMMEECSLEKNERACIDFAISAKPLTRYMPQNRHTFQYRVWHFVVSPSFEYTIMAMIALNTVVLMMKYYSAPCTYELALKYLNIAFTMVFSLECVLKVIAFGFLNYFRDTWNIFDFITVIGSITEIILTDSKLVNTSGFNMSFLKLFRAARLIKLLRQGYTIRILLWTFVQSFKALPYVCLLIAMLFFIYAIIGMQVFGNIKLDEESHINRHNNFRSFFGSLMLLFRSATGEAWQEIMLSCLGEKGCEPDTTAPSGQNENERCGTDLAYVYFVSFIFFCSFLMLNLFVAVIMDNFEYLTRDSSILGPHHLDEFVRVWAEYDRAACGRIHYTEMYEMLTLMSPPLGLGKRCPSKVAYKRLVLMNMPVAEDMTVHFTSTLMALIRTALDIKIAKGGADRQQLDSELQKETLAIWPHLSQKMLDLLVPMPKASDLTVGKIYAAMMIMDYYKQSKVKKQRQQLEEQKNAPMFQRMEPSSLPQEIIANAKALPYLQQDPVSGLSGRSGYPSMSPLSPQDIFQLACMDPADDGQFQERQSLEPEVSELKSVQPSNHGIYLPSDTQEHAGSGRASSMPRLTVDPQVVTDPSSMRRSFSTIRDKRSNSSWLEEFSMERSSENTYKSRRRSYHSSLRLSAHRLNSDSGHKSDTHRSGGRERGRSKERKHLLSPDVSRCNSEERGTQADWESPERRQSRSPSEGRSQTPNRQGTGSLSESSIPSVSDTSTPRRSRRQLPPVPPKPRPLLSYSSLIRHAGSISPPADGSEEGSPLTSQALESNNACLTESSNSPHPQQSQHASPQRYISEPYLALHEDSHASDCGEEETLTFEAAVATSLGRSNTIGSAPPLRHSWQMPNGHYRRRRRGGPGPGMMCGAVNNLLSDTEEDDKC

SMILES	IC50 [nM]
CCN([C@H](c1ccc(F)cc1)C(F)(F)F)S(=O)(=O)c1cnc2nsnc2c1 [Example 147, (R)—N-ethyl-N-(2,2,2-trifluoro-1-(4-fluorophenyl)ethyl)-[1,2,5]thiadiazolo[3,4-b]pyridine-6-sulfonamide]	158
CCN([C@H](c1ccc(F)cc1)C(F)(F)F)S(=O)(=O)c1cnc2ncsc2c1 [Example 151, (R)—N-ethyl-N-(2,2,2-trifluoro-1-(4-fluorophenyl)ethyl)thiazolo[4,5-b]pyridine-6-sulfonamide]	170
CCN([C@H](c1ccc(F)cc1)C(F)(F)F)S(=O)(=O)c1nc2ccccn2n1 [Example 153, (R)—N-ethyl-N-(2,2,2-trifluoro-1-(4-fluorophenyl)ethyl)-[1,2,4]triazolo[1,5-a]pyridine-2-sulfonamide]	1580
CCN([C@H](c1ccc(F)cc1)C(F)(F)F)S(=O)(=O)c1ccn2nnnc2c1 [Example 158, (R)—N-ethyl-N-(2,2,2-trifluoro-1-(4-fluorophenyl)ethyl)tetrazolo[1,5-a]pyridine-7-sulfonamide]	275
CCN([C@H](c1ccc(F)cc1)C(F)(F)F)S(=O)(=O)c1ccc2ncn(C)c2c1 [Example 164, (R)—N-ethyl-1-methyl-N-(2,2,2-trifluoro-1-(4-fluorophenyl)ethyl)-1H-benzo[d]imidazole-6-sulfonamide]	174
CCN([C@H](c1ccc(F)cc1)C(F)(F)F)S(=O)(=O)c1cnc2ccnn2c1 [Example 165, (R)—N-ethyl-N-(2,2,2-trifluoro-1-(4-fluorophenyl)ethyl)pyrazolo[1,5-a]pyrimidine-6-sulfonamide]	123
CCN([C@H](c1ccc(F)cc1)C(F)(F)F)S(=O)(=O)c1cnc2[nH]nnc2c1 [Example 166, (R)—N-ethyl-N-(2,2,2-trifluoro-1-(4-fluorophenyl)ethyl)-1H-[1,2,3]triazolo[4,5-b]pyridine-6-sulfonamide]	794
CCN([C@H](c1ccc(F)cc1)C(F)(F)F)S(=O)(=O)c1cc2cn[nH]c2cn1 [Example 167, (R)—N-ethyl-N-(2,2,2-trifluoro-1-(4-fluorophenyl)ethyl)-1H-pyrazolo[3,4-c]pyridine-5-sulfonamide]	331

Continued, values first:

IC50 [nM]	SMILES
17.4	CCN([C@H](c1ccc(F)cc1)C(F)(F)F)S(=O)(=O)c1ccc2nccn2c1 [Example 146, (R)—N-ethyl-N-(2,2,2-trifluoro-1-(4-fluorophenyl)ethyl)imidazo[1,2-a]pyridine-6-sulfonamide]
692	CCN([C@H](c1ccc(F)cc1)C(F)(F)F)S(=O)(=O)c1cc2ncccn2n1 [Example 148, (R)—N-ethyl-N-(2,2,2-trifluoro-1-(4-fluorophenyl)ethyl)pyrazolo[1,5-a]pyrimidine-2-sulfonamide]
1910	CCN([C@H](c1ccc(F)cc1)C(F)(F)F)S(=O)(=O)c1ccc2sc(N)nc2c1 [Example 155, (R)-2-amino-N-ethyl-N-(2,2,2-trifluoro-1-(4-fluorophenyl)ethyl)benzo[d]thiazole-5-sulfonamide]
204	CCN([C@H](c1ccc(F)cc1)C(F)(F)F)S(=O)(=O)c1cnc2nc[nH]c2c1 [Example 156, (R)—N-ethyl-N-(2,2,2-trifluoro-1-(4-fluorophenyl)ethyl)-1H-imidazo[4,5-b]pyridine-6-sulfonamide]
3020	CCN([C@H](c1ccc(F)cc1)C(F)(F)F)S(=O)(=O)c1ccc2nc(C)c(Cl)n2n1 [Example 157, (R)-3-chloro-N-ethyl-2-methyl-N-(2,2,2-trifluoro-1-(4-fluorophenyl)ethyl)imidazo[1,2-b]pyridazine-6-sulfonamide]
2190	CCN([C@H](c1ccc(F)cc1)C(F)(F)F)S(=O)(=O)c1ccc2nnc(C)n2n1 [Example 168, (R)—N-ethyl-3-methyl-N-(2,2,2-trifluoro-1-(4-fluorophenyl)ethyl)-[1,2,4]triazolo[4,3-b]pyridazine-6-sulfonamide]
